Laboratory results: patent publication US20140113876A1, “BIOMARKERS FOR ASSESSING TREATMENT OF SIALIC ACID DEFICIENCY DISEASES AND CONDITIONS” (ULTRAGENYX PHARMACEUTICAL INC., priority 2012, published 2014)

Test system: HIBM patients
Experiment: Phase 2 clinical trial: change in serum biomarker levels between week 0 and week 24 per dosage group (Human Discovery MAP250+ v2.0 immunoassay)
Type: in vivo
Description: Forty-seven (47) HIBM patient serum samples collected at week 24 from phase 2 study were tested using the Human Discovery MAP250+ v2.0 quantitative immunoassay system developed by Myriad RBM. The results were compared to the serum samples of the same 47 HIBM patients collected at week 0 (baseline) which were conducted earlier with the same immunoassay system.
Patients were unblinded and the results were organized into the 3 assigned dosage groups, placebo (n=14), 3 g/day (n=17) and 6 g/day (n=14). The major focus of the analysis was 1) to assess changes (delta, A) in levels of analytes between baseline and week 24 in each dosage group, 2) whether the changes correlate to dosage levels.
Analytes were excluded from analysis if […] of the HIBM patient samples were below least detectable dose (LDD). Within each dosage group, individual values with >5× difference to the mean of the dosage group were considered as outliers and thus removed from analysis.

[1] = placebo, 3 g/day, 6 g/day, week 0 to week 24, FIG. 4

CC(=O)N[C@H]1[C@H]([C@H](O)[C@H](O)CO)OC(O)(C(=O)O)C[C@@H]1O (some centres unmarked) [Sialic Acid, 5-N-acetylneuraminic acid]
serum level of LAP TGF-b1, change towards normal level compared to placebo (6 g/day dosage group, week 0 to week 24, FIG. 2): declined at a faster rate | serum level of NCAM, change towards normal level compared to placebo (6 g/day dosage group, week 0 to week 24, FIG. 3): increased at a faster rate | change in the levels of the eleven analytes of Table 14 compared to the placebo group (6 g/day group, week 24): more favorable change | slope of delta from placebo to higher dosage group, analytes with baseline levels higher than normal controls (PAI-1, LGL, myoglobin, ENA-78, TGfb1, M-CSF1, MMP-9, CgA) [1]: downward trend | slope of delta from placebo to higher dosage group, analytes with baseline levels lower than normal controls (NCAM, ErbB3) [1]: upward trend
